Laboratory results: patent US5114851A, “Light activated acyl-enzymes” (Duke University, priority 1989, dated 1992)
Counter-ions that a name gives are not always drawn.

Key:
thrombin = assay: Acylation (inactivation) of thrombin monitored by chromogenic assay; type: biochemical; conditions: 1- to 5-fold excess of compound; thrombin 1.5 μM; pH 7.4 Tris buffer
From the text: The reaction of 4-Amidinophenyl-(E)-2-hydroxy-4-diethylamino-α-methylcinnamate hydrocholoride (Compound F) with thrombin to form an acyl-thrombin (hereinafter "DEA acyl-thrombin") was monitored by chromogenic assay. See A. Turner, et al., 110 J.Am.Chem.Soc. 244 (1988); B. Blomback, Theoretical Considerations of Substrate Structures Governing Enzyme Specificity, 3 (M. Scully and V. Kakkar eds 1979)(New York: Churchill Livingston). A 1- to 5-fold excess of 4-Amidinophenyl-(E)-2-hydroxy-4-diethylamino-α-methylcinnamate with thrombin (1.5 μM) in pH 7.4 Tris buffer led to complete loss of thrombin activity in less than 1 hour.

[1] = Photolysis of model compounds and cyclization of the cis photoisomer to the coumarin (conventional spectroscopy or flash photolysis); type: physicochemical
From the text: Preliminary to our studies of the enzyme system, we studied the photochemistry of the model compounds Ethyl-(E)-2-methoxy-4-diethylamino-α-methylcinnamate and Ethyl-(E)-2-hydroxy-4-diethylamino-α-methylcinnamate (hereinafter "DEA acyl", as this compound models DEA acyl-thrombin with ethyl in place of thrombin). Photolysis of Ethyl-(E)-2-methoxy-4-diethylamino-α-methylcinnamate with 366 nm light results in a rapid decrease in absorbance as the cis photoisomer is formed (In all photolyses reported here, except for the laser flash studies, the source lamp was a mercury 500 W high pressure lamp. The 366 nm emission was isolated by a Bausch and Lomb grating monochromator). At the photostationary state, the cis photoisomer is 60% of the mixture, and the ε of the cis compound is <40% of that of the trans at 360 nm. Photolysis for 5 minutes of DEA acyl in 98% ethanol/2% pH 7.4 Tris buffer gives a sharp decrease in the absorbance at 360 nm, followed by a slow increase in absorbance at 380 nm due to the dark formation of the 3-methyl-7-N,N-diethylamino-coumarin (hereafter "the coumarin"). The increase in the absorbance due to the coumarin is first order with kc =7.17·10^-4 s^-1. The presence of the cis isomer has been confirmed by NMR after photolysis as <0° C. […] Photolysis of trans DEA acyl in Tris buffer alone gives a clean conversion to coumarin with an isosbestic point observed at 370 nm. Thus, in Tris and using conventional spectroscopy, there is no evidence for the formation of cis DEA acyl in the conversion of the trans isomer to coumarin, but flash photolysis experiments (vide infra) indicate that the cis intermediate is formed, but is very reactive in this solvent.
No evidence for a cis acyl enzyme photoisomer is seen by conventional spectroscopy. However, flash photolysis (10 nsec) of DEA acyl or DEA acyl-thrombin in Tris buffer with 355 nm light from a Nd/Yad laser does give evidence for the cis photoisomer. For both DEA acyl and DEA acyl-thrombin, the flash results in an immediate decrease in absorbance at 380 nm, followed by a first order increase of absorbance as the coumarin forms from the cis intermediate.

CCN(CC)c1ccc(/C=C(\C)C(=O)Oc2ccc(C(=N)N)cc2)c(O)c1 [Compound F, 2-Propenoic acid, 3-(2-hydroxy-4-diethylaminophenyl)-2-methyl-, 4-(aminoiminomethyl)phenyl ester,(E)-, monohydrochloride salt]
loss of thrombin activity (thrombin): complete loss
time to complete loss of thrombin activity (thrombin): less than 1 hour

CCOC(=O)/C(C)=C/c1ccc(N(CC)CC)cc1OC [Ethyl-(E)-2-methoxy-4-diethylamino-α-methylcinnamate]
ε of the cis compound relative to that of the trans ([1]; at 360 nm): < 40%

CCOC(=O)/C(C)=C\c1ccc(N(CC)CC)cc1O [cis DEA acyl]
First Order Rate Constant (cyclization of cis photoisomer to the coumarin) ([1]; 2/98 ethanol/Tris pH 7.4, 23° C., flash photolysis): 1.7 ± 0.5 s⁻¹
increase of the rate of cyclization with solvent ([1]; 50/50 ethanol/Tris buffer versus 98% ethanol/2% Tris): two orders of magnitude
Half-Life of cyclization to give the coumarin ([1]; 50/50 ethanol/Tris pH 7.4, 23° C.): 0.118 min
Half-Life of cyclization to give the coumarin ([1]; 98/2 ethanol/Tris pH 7.4, 23° C.): 16.1 min
